# According to patent publication US7763580B2, “Methods for treating conditions associated with the accumulation of excess extracellular matrix” (University of Utah Research Foundation, priority 1999, dated 2010):
# B1: HrRenin: Human recombinant renin (Hoffman-La Roche) (protein, UniProt P00797 67-406, looked up)
# Renin: LTLGNTTSSVILTNYMDTQYYGEIGIGTPPQTFKVVFDTGSSNVWVPSSKCSRLYTACVYHKLFDASDSSSYKHNGTELTLRYSTGTVSGFLSQDIITVGGITVTQMFGEVTEMPALPFMLAEFDGVVGMGFIEQAIGRVTPIFDNIISQGVLKEDVFSFYYNRDSENSQSLGGQIVLGGSDPQHYEGNFHYINLIKTGVWQIQMKGVSVGSSTLLCEDGCLALVDTGASYISGSTSSIEKLMEALGAKKRLFDYVVKCNEGPTLPDISFHLGGKEYTLTSADYVFQESYSSKKLCTLAIHAMDIPPPTGPTWALGATFIRKFYTEFDRRNNRIGFALAR
# Experiments:
# anti-Thy 1 model = conditions: monotherapy, anti-Thy 1 model (Peters et al.); L-arginine 1% in drinking water; cited from earlier work
# [1] = tested on: adult human mesangial cells; assay: Renin-induced TGFβ and fibronectin production by adult human mesangial cells (ELISA); format: cell-based; conditions: for renin-induced increase in TGFβ production: 10^−5 M inhibitor added at zero time with 10^−7 M human recombinant renin, adult cells, FIG. 7
# Method: Primary cultures of adult human mesangial cells were grown from human nephrectomy tissues using standard methods. Cells were passaged 4-7 times and then plated (3,000 cell/cm^2) in 12 well plates in 2 ml of medium (Mesangial Basal Medium (Clonetics Corp.) containing 5% FCS, 10 μg/ml penicillin and 100 μg/ml streptomycin) and allowed to grow to 70% confluency for 48 hours at 37EC, 5% CO2. Cultures were washed three times using sterile phosphate buffered saline at room temperature and then 2 ml/well of serum free MBM medium to induce quiescence. After 48 hours, the serum-free medium was removed and 2 ml/well of fresh serum-free medium was added for 24 hours. Human recombinant renin (HrRenin, Hoffman-La Roche Ltd., Basel, Switzerland) in concentrations from 10^−6 to 10^−12 M was added to each well for 24 hours. A blank (no HrRenin) was used as a control. Cells and supernatants were harvested by centrifugation after 24 hrs of culture and frozen at ^−70EC until analysis.
# The total production and release of TGFβ into the culture supernatant was measured using an ELISA kit (R & D Systems). Induction of the matrix protein fibronectin (Fn) in the supernatant was measured using anti-fibronectin antibodies in an ELISA to provide further confirmation of induction of TGFβ. Renin-induced induction of TGFβ, fibronectin and PAI-1 mRNA were measured over time using semi-quantitative RT-PCR in a multiplex system where multiple cDNAs are amplified simultaneously according to Dostal et al., Anal. Biochem. 223:239-250 (1994), incorporated by reference herein Determinations were done in triplicate mesangial cell cultures.
# (§1) Renin inhibitor Ro42-5892 (Hoffman-LaRoche, Basel, Switzerland), Losartan™ (Merck Pharmaceuticals, West Point, Pa.), Enalapril™ (Sigma Chemical Co., St. Louis, Mo., Prod. No. E6888), or TGFβ1 neutralizing antibody (R & D Systems) were added in the amounts indicated below to separate wells in triplicate to block the renin cascade at different sites after stimulation by renin: • 10^−5 M Renin Inhibitor R042-5892 (Hoffman-LaRoche) • 10^−5 M Enalapril™ (Sigma Chemical Co., St. Louis, Mo.) • 10^−5 M Losartan™ (Merck Pharmaceuticals, West Point, Pa.) • Controls included neutralizing antibody to TGFβ (ATG) and control IgG (TgG)
# (§2) These inhibitors were added at zero time with 10^−7 M human recombinant renin (Hoffman-LaRoche).
# [2] = tested on: Normal fetal human mesangial cells; assay: Renin-induced TGFβ production by fetal human mesangial cells (ELISA); format: cell-based; conditions: for renin-induced increase in TGFβ production: 10^−5 M inhibitor added at zero time with 10^−7 M human recombinant renin, FIG. 3
# Method: Normal fetal human mesangial cells (Clonetics Corp., Clonetics, Walkersville, Md.) passaged 5 to 8 times, were plated (3,000 cell/cm^2) in 12 well plates in 2 ml of medium (Mesangial Basal Medium (Clonetics Corp.) containing 5% FCS, 10 μg/ml penicillin and 100 μg/ml streptomycin) and allowed to grow to confluence for 48 hours at 37EC, 5% CO2. Cultures were washed three times using sterile phosphate buffered saline at room temperature and then 2 ml/well of serum free MBM medium to induce quiescence. After 48 hours, the serum-free medium was removed and 2 ml/well of fresh serum-free medium was added. Human recombinant renin (Hoffman-La Roche Ltd., Basel, Switzerland) in concentrations from 10^−6 to 10^−12 M was added to each well. A blank and 5 ng/ml of TGFβ (R & D Systems, Minneapolis, Minn.) were used as controls. Cells and supernatants were harvested by centrifugation after 24 hrs of culture and frozen at ^−70EC until analysis. The total production and release of TGFβ into the culture supernatant was measured using an ELISA kit (R & D Systems). Induction of PAI-1 and fibronectin in the supernatant are also measured using anti-PAI-1 and anti-fibronectin antibodies in an ELISA to provide further confirmation of the inhibition of TGFβ. TGFβ, fibronectin and PAI-1 mRNA are measured using semi-quantitative RT-PCR.
# as §1, with “(Hoffman-LaRoche) • 30 ng/ml Anti-TGFβ1 antibody (R & D Systems, #AB 101 NA) • 30 ng/ml Chicken IgG (control for anti-TGFβ1 antibody, R & D Systems, # AB 101 C) • 10^−5 M” for “(Hoffman-LaRoche) • 10^−5 M”, “Point, Pa.)” for “Point, Pa.) • Controls included neutralizing antibody to TGFβ (ATG) and control IgG (TgG)”
# as §2
# nephritic glomeruli = assay: Plasmin generation by isolated nephritic glomeruli after rtPA injection; format: in vivo, rats; conditions: rtPA injected 10, 20 and 30 minutes before sacrifice; vs disease control
# Method: rtPA was injected into nephritic rats 10, 20 and 30 minutes before sacrifice. At sacrifice, glomeruli were isolated and placed in culture with a chromogenic substrate for tPA.
# anti-Thy-1 nephritis [3] = assay: Glomerular ECM staining after rtPA in anti-Thy-1 nephritis; format: in vivo, Sprague-Dawley rats
# Method: (§3) Six Sprague-Dawley rats with were injected with phosphate buffered saline (PBS, as a control) and 18 rats were injected with 300 ug of mouse monoclonal OX7 antibody produced in the laboratory using commercially obtained hybridoma cells (American Type Culture Collecton (Rockville, Md., USA; Peters et al., Kidney Internatl. 54:1570-1580 (1998)) on day 1 to induce anti-Thy-1 nephritis. Injection of the anti rat-thymocyte antibody intravenously causes binding to an epitope in rat glomerular mesangial cells call Thy 1.1. The complement-mediated mesangial cell lysis that follows initiates a cascade of tissue injury, followed by a repair process that involves induction of TGFβ-driven production and deposition of ECM components. […] These alterations favor decreased plasmin generation which decreases matrix turnover and enhances matrix accumulation. Plasmin is the key to mesangial cell matrix turnover (Baricos et al, Kidney Int. 47:1037-1047 (1995)).
# Three days after the initial injection, rtPA (Genentech, Inc., San Francisco, Calif.) in a formulation designed for rodent intravenous injection (GenBank E08757) or PBS was injected intravenously. Injections were repeated twice a day from day 3 to day 5. RtPA was injected i.v. at a dose of 1 mg/kg BW (n'6). Controls received saline (n'6). Glomerular staining for ECM matrix proteins (collagen type I and III, fibronection EDA+ and tenascin) and glomerular mRNA levels of TGFβ1, fibronectin and PAI-1 were evaluated at day 6. Localization of rtPA in nephritic glomeruli and the effect of rtPA on glomerular plasmin were investigated. Rats were sacrificed at day 6 and kidney tissues excised, fixed in formalin and frozen for histological analysis.
# Kidney tissue sections were stained for extracellular matrix using Periodic Acid Schiff (PAS) using standard procedures and were stained for specific relevant matrix proteins such as Collagen I, Collagen IV, Fibronectin EDA and tenascin using standard immunohistochemical staining procedures. Matrix proteins were scored by image analysis of 30 glomeruli per rat.
# anti-Thy-1 nephritis [4] = assay: Glomerular mRNA levels after rtPA in anti-Thy-1 nephritis; format: in vivo, Sprague-Dawley rats; conditions: rtPA treated, day 6, FIG. 10
# Method: as §3
# Three days after the initial injection, rtPA (Genentech, Inc., San Francisco, Calif.) in a formulation designed for rodent intravenous injection (GenBank E08757) or PBS was injected intravenously. Injections were repeated twice a day from day 3 to day 5. […] Glomerular staining for ECM matrix proteins (collagen type I and III, fibronection EDA+ and tenascin) and glomerular mRNA levels of TGFβ1, fibronectin and PAI-1 were evaluated at day 6. […]
# [5] = 10^−6M HrRenin, 24 hours, peak of dose response, p<0.05
molecule,measurement,setting,value
N=C(N)NCCC[C@H](N)C(=O)O [L-arginine],reduction of markers of fibrotic disease,anti-Thy 1 model,about 50%
CCCCc1nc(Cl)c(CO)n1Cc1ccc(-c2ccccc2-c2nn[nH]n2)cc1 [Losartan],renin-induced increase in TGFβ production,[1],does not reduce the renin-induced increase in TGFβ production
same,reduction of markers of fibrotic disease,anti-Thy 1 model,about 50%
same,renin-induced increase in TGFβ production,[2],does not reduce the renin-induced increase in TGFβ production
CC(C)(C)S(=O)(=O)C[C@@H](Cc1ccccc1)C(=O)N[C@@H](Cc1c[nH]cn1)C(=O)N[C@@H](CC1CCCCC1)[C@@H](O)[C@@H](O)C1CC1 [Ro 42-5892],renin-induced increase in TGFβ production,[1],does not reduce the renin-induced increase in TGFβ production
same,renin-induced increase in TGFβ production,[2],does not reduce the renin-induced increase in TGFβ production
rtPA: recombinant tissue type plasminogen activator (Genentech),Plasmin generation by nephritic glomeruli,nephritic glomeruli,significantly elevated
same,"percentage of the glomerular area with positive staining, fibronectin EDA+","anti-Thy-1 nephritis [3]; rtPA 1 mg/kg BW i.v. twice a day day 3 to 5, day 6, disease control 19±2, p<0.01",14±1%
same,"percentage of the glomerular area with positive staining, type IV collagen","anti-Thy-1 nephritis [3]; rtPA 1 mg/kg BW i.v. twice a day day 3 to 5, day 6, disease control 27±2, p<0.01",23±1%
same,"percentage of the glomerular area with positive staining, type I collagen","anti-Thy-1 nephritis [3]; rtPA 1 mg/kg BW i.v. twice a day day 3 to 5, day 6, disease control 33±1, p<0.001",21±3%
same,"percentage of the glomerular area with positive staining, laminin","anti-Thy-1 nephritis [3]; rtPA 1 mg/kg BW i.v. twice a day day 3 to 5, day 6, disease control 35±2, p<0.001",25±2%
same,matrix accumulated in glomeruli,"anti-Thy-1 nephritis [3]; tPA vs control, FIG. 8",overall decrease in matrix accumulated
same,"Glomerular levels of TGFβ1, FN and PAI-1 mRNA",anti-Thy-1 nephritis [4],unchanged
B1,increase in Fn production,[1]; [5],1.4 fold
same,increase in TGFβ production,[1]; [5],2 fold
same,"TGFβ and Fn production, time course","[1]; 10^−7M HrRenin, 24 and 48 hours, p<0.03",significant increases in TGFβ and Fn production at 24 and 48 hours
same,TGFβ production by cultured human mesangial cells,"[2]; renin 10^−6 to 10^−12 M, 24 hrs, FIG. 2",increases the TGFβ production by cultured human mesangial cells in a dose-dependent manner
